Source: US20140066370A1, “Polypeptide Conjugate” (priority 2009, published 2014)
Read-outs that look alike come from different tables or passages of the source. Marks after values point to notes of the source that are not given here.

Key:
[1] = tested on: diet-induced obese (DIO) male Sprague Dawley rats; experiment: DIO rat 4-week constant sc infusion: body weight; format: in vivo
Protocol: (§1) Various metabolic and PK parameters were evaluated.
(§2) Study Design. The Polypeptide Conjugates were tested relative to vehicle (50% DMSO in sterile water) and parent compounds alone and in combination (see Table 1).
(§3) Food intake and body weight were measured weekly. Body composition was assessed on day −1 and day 28 using an NMR instrument (Echo Medical Systems, Houston, Tex.). Adiposity (percent fat mass) was defined as the amount of fat mass relative to body weight (fat mass/body weight×100). Blood was collected via tail vein on day 14. On day 28 a sample of blood was drawn via the jugular vein and animals were euthanized by isoflurane overdose. Mini-pumps were immediately removed, animals were subjected to a brief NMR scan, and tissues were collected for future histological examination and preliminary toxicological assessment.
(§4) Statistical Analysis. Data were analyzed using one-way analysis of variance (ANOVA) with Newman-Keuls post-hoc comparisons. Significance was assumed for p<0.05. Graphs were generated using Prism 4 for Windows (Graphpad Software, San Diego, Calif.). All data points are expressed as mean±SEM.

[2] = tested on: diet-induced obese (DIO) male Sprague Dawley rats; experiment: DIO rat 4-week constant sc infusion: cumulative food intake; format: in vivo; conditions: highest dose tested (100 nmol/kg/d)
Protocol: as §1, §2, §3, §4

[3] = tested on: diet-induced obese (DIO) male Sprague Dawley rats; experiment: DIO rat 4-week sc infusion: body composition by NMR; format: in vivo
Protocol: as §1, §2, §3, §4
To correct for loss of body weight, reductions in fat and lean mass were adjusted for terminal body weight to calculate the change in adiposity (percent fat mass) and change in percent lean mass.

[4] = tested on: diet-induced obese (DIO) male Sprague Dawley rats; experiment: DIO rat 4-week sc infusion: hormone and metabolite analyses (HbA1c, insulin, lipids, glucose); format: in vivo; conditions: for Insulin 14 day / Insulin 28 day: fed state plasma; for Glucose / HDL cholesterol / Total cholesterol / Triglycerides: plasma after 28 days
Protocol: as §1, §2, §3, §4
(§5) Hormone and metabolite analyses. Plasma levels of study drug were measured at day 14 and termination by an ELISA. Whole blood percent hemoglobin A1c (% HbA1c), plasma triglyceride, total cholesterol, HDL cholesterol and plasma glucose at day 14 and at termination were measured using an Olympus bioanalyzer (Olympus America Diagnostics). Plasma insulin levels at day 14 and at termination were analyzed by an ELISA kit (Rat/Mouse Insulin ELISA, Linco Diagnostics).
Plasma parameters. The effects of the parent and Polypeptide Conjugate compounds on the following plasma parameters were determined: percent hemoglobin A1c (HbA1c), fed state plasma insulin, and concentration of the Polypeptide Conjugate in plasma, at 14 and 28 days.

[5] = DIO rats, sc infusion
Protocol: as §1, §2, §3, §5

NIH/Swiss female mice = experiment: basal glucose lowering assay (Oral Glucose Tolerance Test; OGTT); format: in vivo, mouse; conditions: IP at t=-5 min, 4-hour fasted mice, glucose gavage […], blood glucose at t=30 minutes
Protocol: Polypeptide Conjugates and parent compounds were analyzed in an in vivo basal glucose lowering assay. This assay reflects the conjugate polypeptide's ability to enhance insulin-mediated glucose clearance of orally administered glucose challenge (Oral Glucose Tolerance Test; OGTT). The OGTT is used to diagnose diabetes, although the simpler fasting plasma glucose test, which measures a subject's plasma glucose level after fasting for at least eight hours, is preferred. The following procedure was used: Test compound at various concentrations was injected intraperitoneally (IP) at t=−5 min to 4-hour fasted NIH/Swiss female mice. Glucose gavage (1.5 g/kg) was given at t=0. Sample was taken at t=30 minutes as tail blood glucose using a OneTouch® Ultra® (LifeScan, Inc., Milpitas, Calif.). Significant effects were identified by ANOVA (p<0.05), followed by Dunnett's post test using GraphPad Prism version 4.00 for Windows (GraphPad Software, San Diego Calif.).

rats = experiment: acute kaolin intake (pica, nausea) and chow intake in rats; format: in vivo, rat; conditions: 24 hr post injection
Protocol: To investigate possible nausea effects of the conjugate polypeptide, acute kaolin intake was measured in rats. Pica behavior (ingestion of dirt/clay) is a marker of nausea in rodents, typically associated with reduced food intake and weight loss. Pica can be assessed by measuring intake of the synthetic clay kaolin. […] Rats were acclimated to kaolin for 3 days as kaolin clay mixed in with regular chow. A 4 hr and a 24 hr baseline kaolin and chow intake were then measured. Subsequently, rats were fasted for approximately 16 hrs after which test compound was injected at the dose indicated below. At 24 hr post injection chow and kaolin consumption was measured.

male Sprague Dawley rats = experiment: delay of gastric emptying (acetaminophen appearance in plasma); format: in vivo, rat; conditions: for Percent Inhibition of Gastric Emptying 4 hr / Percent Inhibition of Gastric Emptying 6 hr / Percent Inhibition of Gastric Emptying 8 hr: 1 nmol/kg single sc injection
Protocol: Polypeptide Conjugates and parent compounds were analyzed for their ability to delay gastric emptying in rats. […] Rats then received an oral gavage of 33 mg acetaminophen/1 ml Orablend (Paddock Laboratories, Inc., MN USA) at t=3.5 hr, 5.5 hr or 7.5 hr post-injection. Blood was collected for measurement of acetaminophen at 4 hr, 6 hr or 8 hr after SC injection. Gastric emptying was assessed by the appearance of acetaminophen in plasma 30 min after oral gavage.

ob/ob mice = experiment: 28 days of exposure in ob/ob mice (obese and diabetic); format: in vivo, mouse
[6] = in vivo blood calcium lowering (amylin agonist property)
[7] = acute reduction of food intake; format: in vivo
[8] = human plasma, 5 hr incubation; detection limit 10%
[9] = human kidney brush border membrane matrices, 5 hr incubation; detection limit 10%
amylin receptor = target: T1, amylin receptor (Homo sapiens, UniProt P30988); experiment: binding selectivity for amylin receptor against the CGRP receptor
T1 sequence (P30988 25-474): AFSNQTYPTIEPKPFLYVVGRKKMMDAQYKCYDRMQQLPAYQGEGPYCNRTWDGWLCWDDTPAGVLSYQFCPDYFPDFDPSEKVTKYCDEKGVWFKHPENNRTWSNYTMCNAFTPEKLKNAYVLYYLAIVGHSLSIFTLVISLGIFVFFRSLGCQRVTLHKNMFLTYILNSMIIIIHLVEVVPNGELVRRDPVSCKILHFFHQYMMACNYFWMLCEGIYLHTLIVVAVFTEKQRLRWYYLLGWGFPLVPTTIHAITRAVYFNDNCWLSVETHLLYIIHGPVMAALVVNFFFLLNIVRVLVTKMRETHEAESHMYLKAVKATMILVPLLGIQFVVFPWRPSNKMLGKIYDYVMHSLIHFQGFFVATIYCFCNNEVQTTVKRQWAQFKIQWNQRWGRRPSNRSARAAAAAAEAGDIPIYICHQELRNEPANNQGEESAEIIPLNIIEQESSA

calcitonin receptors = target: T2, calcitonin receptors (Homo sapiens, UniProt P30988); experiment: binding selectivity for calcitonin receptors against the CGRP receptor
T2 sequence (P30988 25-474): T1 sequence (P30988 25-474)

## HGEGTFTSDLSKQLEEEAVRLFIEWLKQGGPSKEIISGGGKCNTATCVLGRLSQELHRLQ TYPRTNTGSNTY-NH2 [Cmpd 2A]
[1]; DIO rats
  potency at reducing body weight via sustained infusion relative to Cmpd 3A: several fold more potent
[1]; DIO rats, sc infusion, 100 nmol/kg/d
  four week vehicle-corrected weight loss: −31.5±2.7%
[1]; DIO rats, sc infusion, 100 nmol/kg/d group
  Maximal weight loss: −27.8±5.3%
[1]; DIO rats, sc infusion, doses of Table 1 (conjugates 3, 10, 30 and 100 nmol/kg/d), p<0.05
  body weight over the 28 day treatment relative to vehicle: dose-dependently reduced body weight significantly
[2]
  total food intake relative to single parent peptide administration: significantly reduced
[3]; 3 nmol/kg/d, day 28
  Terminal Fat Mass: 71.4 ± 12.9^a,b g
  Terminal Lean Mass: 330.5 ± 7.3^a,b g
[3]; 10 nmol/kg/d, day 28
  Terminal Fat Mass: 35.8 ± 7.7^c,d g
  Terminal Lean Mass: 280.6 ± 22.6^b g
[3]; 30 nmol/kg/d, day 28
  Terminal Fat Mass: 32.4 ± 3.8^c,d g
  Terminal Lean Mass: 306.5 ± 13.2^a,b g
[3]; 100 nmol/kg/d, day 28
  Terminal Fat Mass: 12.7 ± 4.3^d g
  Terminal Lean Mass: 277.8 ± 17.8^b g
  change in adiposity (percent fat mass): −12.2±1.3%
[3]; all doses of Table 1, day 28
  adiposity compared to vehicle controls: significantly reduced
[3]; all doses, day 28
  percent lean mass relative to vehicle controls: did not alter percent lean mass
[4]; 3 nmol/kg/day
  HbA1c 14 day: 4.9 ± 0.1%
  Insulin 14 day: 1.8 ± 0.6^b ng/mL
  HbA1c 28 day: 4.6 ± 0.1%
  Insulin 28 day: 2.2 ± 0.9 ng/mL
  Glucose: 132 ± 9 mg/dL
  HDL cholesterol: 33 ± 2 mg/dL
  Total cholesterol: 116 ± 8 mg/dL
  Triglycerides: 295 ± 75^b mg/dL
[4]; 10 nmol/kg/day
  HbA1c 14 day: 4.9 ± 0.1^b %
  Insulin 14 day: 1.5 ± 0.2^b ng/mL
  HbA1c 28 day: 4.6 ± 0.1%
  Insulin 28 day: 1.0 ± 0.2 ng/mL
  Glucose: 115 ± 6 mg/dL
  HDL cholesterol: 33 ± 5 mg/dL
  Total cholesterol: 115 ± 14 mg/dL
  Triglycerides: 146 ± 41^b mg/dL
[4]; 30 nmol/kg/day
  HbA1c 14 day: 4.8 ± 0.1%
  Insulin 14 day: 1.8 ± 0.5^b ng/mL
  HbA1c 28 day: 4.6 ± 0.1%
  Insulin 28 day: 0.8 ± 0.1 ng/mL
  Glucose: 111 ± 2 mg/dL
  HDL cholesterol: 32 ± 1 mg/dL
  Total cholesterol: 112 ± 4 mg/dL
  Triglycerides: 128 ± 25^b mg/dL
[4]; 100 nmol/kg/day
  HbA1c 14 day: 4.8 ± 0.1%
  Insulin 14 day: 1.2 ± 0.2^b ng/mL
  HbA1c 28 day: 4.5 ± 0.1%
  Insulin 28 day: 0.7 ± 0.1 ng/mL
  Glucose: 110 ± 4 mg/dL
  HDL cholesterol: 30 ± 1 mg/dL
  Total cholesterol: 107 ± 3 mg/dL
  Triglycerides: 139 ± 17^b mg/dL
[5]; 3 nmol/kg/day
  plasma drug level (Cmpd 2A or Cmpd 1A) 14 day: 15 ± 6^a ng/mL
  plasma drug level (Cmpd 2A or Cmpd 1A) 28 day: 65 ± 35^a ng/mL
[5]; 10 nmol/kg/day
  plasma drug level (Cmpd 2A or Cmpd 1A) 14 day: 48 ± 16^a ng/mL
  plasma drug level (Cmpd 2A or Cmpd 1A) 28 day: 345 ± 67^a ng/mL
[5]; 30 nmol/kg/day
  plasma drug level (Cmpd 2A or Cmpd 1A) 14 day: 65 ± 7^a ng/mL
  plasma drug level (Cmpd 2A or Cmpd 1A) 28 day: 540 ± 232^a ng/mL
[5]; 100 nmol/kg/day
  plasma drug level (Cmpd 2A or Cmpd 1A) 14 day: 284 ± 79^b ng/mL
  plasma drug level (Cmpd 2A or Cmpd 1A) 28 day: 1985 ± 717^b ng/mL
NIH/Swiss female mice
  ED50 in OGTT: 1.4 nmol/kg
rats; 30 nmol/kg/d
  Inhibited food intake: Yes ~68%
  Kaolin intake: 0.3 g
Male Sprague Dawley rats
  Percent Inhibition of Gastric Emptying 4 hr: 79
  Percent Inhibition of Gastric Emptying 6 hr: 49
  Percent Inhibition of Gastric Emptying 8 hr: 4
ob/ob mice
  HbA1c: HbA1c reduction
  body weight: body weight loss
  fasted blood glucose: fasted blood glucose-lowering
[6]
  blood calcium: lower blood calcium
[7]
  potency at reducing food intake acutely compared with Cmpd 3A: more potent
[8]
  metabolites detected: No metabolites were detected
[9]
  metabolites detected: No metabolites were detected

## HGEGTFTSDLSKQMEEEAVRLFIEWLKNGGGKCNTATCVLGRLSQELHRLQTYPRTNT GSNTY-NH2 [Cmpd 3A]
[1]; 100 nmol/kg/d of previous reference conjugates
  weight loss: ~20%
NIH/Swiss female mice
  ED50 in OGTT: 6 nmol/kg
rats; 15 nmol/kg/d
  Inhibited food intake: Yes ~20%
  Kaolin intake: 0.5 g
Male Sprague Dawley rats
  Percent Inhibition of Gastric Emptying 4 hr: 33
  Percent Inhibition of Gastric Emptying 6 hr: 0
  Percent Inhibition of Gastric Emptying 8 hr: 0
Male Sprague Dawley rats; at the time point and doses tested
  inhibition of gastric emptying: did not significantly inhibit gastric emptying
Amylin receptor
  selectivity for amylin receptor against the CGRP receptor: > 100 fold
Calcitonin receptors
  selectivity for calcitonin receptors against the CGRP receptor: > 280 fold
